In brackets after ≈: the same amount, converted by molar mass. Read-outs that look alike come from different tables or passages of the source.
How the values were obtained:
[1] = target: KRAS (G12D)::SOS1 protein-protein interaction (Homo sapiens (Human), UniProt P01116, G12D); experiment: KRAS::SOS1 AlphaScreen binding assay (KRAS G12D); settings: GDP
Method in brief: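 AlphaScreen assay with KRAS G12D (1-169, 6His/avi-tagged, 10 nM), GST-SOS1 564-1049 (5 nM) and GDP (10 μM) in PBS, 0.1% BSA, 0.05% Tween 20; compound up to 100 μM top concentration, eleven fivefold dilutions in duplicate. After 30 min, glutathione acceptor and streptavidin donor beads (10 μg/mL each) were added and signal read after a further 60 min at room temperature in the dark; IC50 from 4-parameter logistic fit.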

Ba/F3 cells KRAS G12V = experiment: Ba/F3 proliferation assay (KRAS G12V); assay type: cell-based; settings: Mus musculus, BaF3, 72 h, AlamarBlue viability
Method in brief: (§1)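 Ba/F3 cells retrovirally transduced with KRAS G12 mutant, puromycin-selected, grown IL-3-independent; seeded in RPMI-1640 + 10% FCS without IL-3. Logarithmic compound dose series in duplicate, 72 h at 37° C., AlamarBlue fluorescence as % of DMSO control; IC50 from four-parameter non-linear regression.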

[2] = Solubility measurement (DMSO solution precipitation method); assay type: physicochemical; settings: aqueous buffer, kinetic from dmso stock
Method in brief: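 A 10 mM DMSO stock was diluted to 250 μM final in McIlvaine buffer at pH 4.5 or 6.8, then shaken 24 h at ambient temperature. After filtering off precipitate, filtrate concentration was quantified by LC-UV against a fully dissolved reference in acetonitrile/water (1:1).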

Ba/F3 cells KRAS G12C = experiment: Ba/F3 proliferation assay (KRAS G12C); assay type: cell-based; settings: Mus musculus, BaF3, 72 h, AlamarBlue viability
Method in brief: as §1

Ba/F3 cells KRAS G12D = experiment: Ba/F3 proliferation assay (KRAS G12D); assay type: cell-based; settings: Mus musculus, BaF3, 72 h, AlamarBlue viability
Method in brief: as §1

[3] = McIlvaine buffer pH 4.5, 24 h, read-out: solubility pH 4.5
[4] = McIlvaine buffer pH 6.8, 24 h, read-out: solubility pH 6.8

Chain of KRAS (G12D)::SOS1 protein-protein interaction (P01116 other isoform, or with tags, fused parts or gaps G12D): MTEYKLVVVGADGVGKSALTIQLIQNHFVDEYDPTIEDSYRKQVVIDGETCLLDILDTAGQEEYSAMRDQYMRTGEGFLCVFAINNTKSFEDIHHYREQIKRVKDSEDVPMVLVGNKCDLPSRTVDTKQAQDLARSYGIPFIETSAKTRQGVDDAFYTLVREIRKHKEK

SMILES	IC50 [1] [nM]	IC50 (Ba/F3 cells KRAS G12V) [nM]	solubility at 24 h [2, 3] [µg/mL]	solubility at 24 h [2, 4] [µg/mL]	IC50 (Ba/F3 cells KRAS G12C) [nM]	IC50 (Ba/F3 cells KRAS G12D) [nM]
C[C@H](Oc1nc(-c2onc3c2CCC[C@@]32CCCc3sc(N)c(C#N)c32)nc2c1COC[C@]21CCOC1)[C@@H]1CCCN1C [I-54]	1	1	> 145	> 142	2	4
C[C@H](Oc1nc(-c2onc3c2CCC[C@@]32CCCc3sc(N)c(C#N)c32)nc2c1CN(C1COC1)C[C@]21CCOC1)[C@@H]1CC[C@H](C)N1C [I-55]	1	1	> 159	> 137	3	10
C[C@H](Oc1nc(-c2onc3c2CCC[C@@]32CCCc3sc(N)c(C#N)c32)nc2c1CN(C1COC1)C[C@]21CCOC1)[C@@H]1CCCN1C [I-56]	1	2	> 157	> 147	4	13
CO[C@H]1CCN(C)[C@@H]1[C@H](C)Oc1nc(-c2onc3c2CCC[C@@]32CCCc3sc(N)c(C#N)c32)nc2c1CN(C1COC1)C[C@]21CCOC1 [I-57]	1	2	> 167	72 (≈ 105 µM)	3	11
CO[C@@H]1C[C@@H]([C@H](C)Oc2nc(-c3onc4c3CCC[C@@]43CCCc4sc(N)c(C#N)c43)nc3c2CN(C2COC2)C[C@]32CCOC2)N(C)C1 [I-58]	1	2	> 167	122 (≈ 177 µM)	4	22
CO[C@H]1CCN(C)[C@@H]1[C@H](C)Oc1nc(-c2noc3c2CCC[C@@]32CCCc3sc(N)c(C#N)c32)nc2c1n(C)c(=O)n2[C@@H]1CCOC1 [II-1]	1	2	> 161	37 (≈ 56 µM)	4	9
C[C@H](Oc1nc(-c2noc3c2CCC[C@@]32CCCc3sc(N)c(C#N)c32)nc2c1n(C)c(=O)n2[C@@H]1CCOC1)[C@@H]1CCCN1C [II-2]	1	2	> 154	> 153	4	9
CO[C@H]1CCN(C)[C@@H]1[C@H](C)Oc1nc(-c2noc3c2CCC[C@@]32CCCc3sc(N)c(C#N)c32)nc2c1n(C)c(=O)n2[C@@H]1CCCOC1 [II-3]	2	2	> 151	11 (≈ 16.3 µM)	3	9
C[C@H](Oc1nc(-c2noc3c2CCC[C@@]32CCCc3sc(N)c(C#N)c32)nc2c1cnn2[C@@H]1CCOC1)[C@@H]1CCCN1C [II-4]	1	5	> 139	104 (≈ 173 µM)	12	16
CO[C@@H]1C[C@@H]([C@H](C)Oc2nc(-c3noc4c3CCC[C@@]43CCCc4sc(N)c(C#N)c43)nc3c2n(C)c(=O)n3[C@@]23COC[C@@H]2C3)N(C)C1 [II-6]	1	1	> 144	62 (≈ 92.2 µM)	2	11
C[C@H](Oc1nc(-c2noc3c2CCC[C@@]32CCCc3sc(N)c(C#N)c32)nc2c1CN(c1ncccn1)[C@]21CCOC1)[C@@H]1CCCN1C [II-7a]	2	10	65 (≈ 97.6 µM)	24 (≈ 36 µM)	10	28
C[C@H](Oc1nc(-c2noc3c2CCC[C@@]32CCCc3sc(N)c(C#N)c32)nc2c1CN(c1ncccn1)[C@@]21CCOC1)[C@@H]1CCCN1C [II-7b]	5	37	62 (≈ 93.1 µM)	23 (≈ 34.5 µM)	61	127
C[C@H](Oc1nc(-c2noc3c2CCC[C@@]32CCCc3sc(N)c(C#N)c32)nc2c1COC[C@]21CCOC1)[C@@H]1CCCN1C [II-8]	1	1	> 142	> 143	2	4
C[C@H](Oc1nc(-c2noc3c2CCC[C@@]32CCCc3sc(N)c(C#N)c32)nc2c1COC[C@@]21CCOC1)[C@@H]1CCCN1C [II-9a]	2	28	> 141	> 138	84	59
C[C@H](Oc1nc(-c2noc3c2CCC[C@@]32CCCc3sc(N)c(C#N)c32)nc2c1CCO[C@]21CCOC1)[C@@H]1CCCN1C [II-9b]	1	2	> 141	> 137	5	8
CO[C@@H]1C[C@@H]([C@H](C)Oc2nc(-c3noc4c3CCC[C@@]43CCCc4sc(N)c(C#N)c43)nc3c2COC[C@]32CCOC2)N(C)C1 [II-11]	1	1	> 144	45 (≈ 71.1 µM)	1	4
C[C@H](Oc1nc(-c2noc3c2CCC[C@@]32CCCc3sc(N)c(C#N)c32)nc2c1CN(C1COC1)C[C@]21CCOC1)[C@@H]1CCCN1C [II-12]	1	1	> 152	> 140	2	8
CO[C@H]1CCN(C)[C@@H]1[C@H](C)Oc1nc(-c2noc3c2CCC[C@@]32CCCc3sc(N)c(C#N)c32)nc2c1CN(C1COC1)C[C@]21CCOC1 [II-13]	1	1	> 151	52 (≈ 75.6 µM)	2	7
CO[C@@H]1C[C@@H]([C@H](C)Oc2nc(-c3noc4c3CCC[C@@]43CCCc4sc(N)c(C#N)c43)nc3c2CN(C2COC2)C[C@]32CCOC2)N(C)C1 [II-14]	1	2	> 149	114 (≈ 166 µM)	3	11
C[C@H](Oc1nc(-c2noc3c2CCC[C@@]32CCCc3sc(N)c(C#N)c32)nc2c1CNC[C@]21CCOC1)[C@@H]1CCCN1C [II-15]	1	2	> 147	> 148	1	8
C[C@H](Oc1nc(-c2noc3c2CCC[C@@]32CCCc3sc(N)c(C#N)c32)nc2c1CN(C1COC1)C[C@]21CCOC1)[C@@H]1CC[C@H](C)N1C [II-17]	1	1	> 138	102 (≈ 152 µM)	3	6
C[C@H](Oc1nc(-c2noc3c2CCC[C@@]32CCCc3sc(N)c(C#N)c32)nc2c1CCC21CCOC1)[C@@H]1CCCN1C (stereo partly drawn) [II-18]	2	13	89 (≈ 152 µM)	37 (≈ 63.1 µM)	31	20
